Measurements taken from the NIST ThermoML archive (doi:10.1021/je400879v).

Assay: molar heat capacity at constant pressure
Conditions: 101.33 kPa, Crystal

COC(=O)[C@H](Cc1ccccc1)NC(=O)[C@H](CC(C)C)NC(=O)[C@H](CCSC)NC=O [methyl formyl-L-methionyl-L-leucyl-L-phenylalaninate]
Conditions | molar heat capacity at constant pressure [J/K/mol]
142.02 K | 328.1
144.68 K | 332.5
147.35 K | 336.5
150 K | 340.1
150.01 K | 340.6
152.68 K | 344.7
155.33 K | 348.5
157.99 K | 352.9
160 K | 355.6
160.64 K | 357.2
163.28 K | 361.6
165.92 K | 365.7
168.56 K | 368.7
170 K | 371.3
171.19 K | 373.7
174.6 K | 377.8
176.09 K | 381.5
179.5 K | 385.9
180 K | 387.3
182.11 K | 390.6
184.71 K | 394.8
187.31 K | 398.3
189.9 K | 402.2
190 K | 403.7
192.49 K | 407.4
195.07 K | 411.8
197.64 K | 416.1
200 K | 420.3
200.2 K | 420
202.74 K | 423.8
205.27 K | 428.2
207.77 K | 433.6
210 K | 437.2
210.28 K | 436.5
212.77 K | 442.5
215.23 K | 446.4
217.6 K | 450.8
220 K | 454.3
220.02 K | 455.6
222.4 K | 459.1
224.71 K | 463.1
227.02 K | 467.1
229.33 K | 471.1
230 K | 471.6
231.66 K | 475.2
234 K | 478.4
236.36 K | 484.2
238.72 K | 488
240 K | 489
241.09 K | 490.9
243.46 K | 493.2
245.83 K | 498.9
248.18 K | 503
250 K | 506.5
250.5 K | 507.1
252.78 K | 509.6
254.83 K | 514.5
257.07 K | 518.7
259.3 K | 523.3
260 K | 524.3
261.5 K | 528
263.68 K | 532.6
265.84 K | 535.2
267.99 K | 539.2
270 K | 542.4
270.16 K | 543.2
272.34 K | 547.3
274.5 K | 552.1
276.67 K | 554.9
277.1 K | 557.8
279.97 K | 561.2
280 K | 561.1
282.11 K | 564.9
284.23 K | 568.8
286.34 K | 571.5
288.8 K | 578
290 K | 580.7
290.49 K | 581
292.53 K | 584.6
294.54 K | 587.8
296.39 K | 591.6
298.15 K | 597.6
298.4 K | 596.2
300 K | 601.6
300.24 K | 601.4
302.09 K | 606.6
304.77 K | 614.7
307.42 K | 619.1
309.83 K | 624.8
310 K | 624.4
312.19 K | 631
314.41 K | 635
316.68 K | 638.7
318.91 K | 645.4
320 K | 649.7
321.09 K | 652.2
323.22 K | 661.1
325.19 K | 665.5
327.12 K | 669.6
329.13 K | 677.2
330 K | 678.4
330.96 K | 681.9
332.75 K | 688.8
334.5 K | 691.9
335.18 K | 695
336.88 K | 700.5
338.54 K | 704.4
340 K | 711.3
340.17 K | 710.6
341.74 K | 717
343.27 K | 723.9
344 K | 726
